{"source": "patent EP2508526A1", "about": "“Spiroalkene carboxamide derivatives and their use as chemokine receptor modulators” (Ares Trading SA, priority 2011, dated 2012)"}
{"molecular_target": "T1, hCCR2b (Homo sapiens, UniProt P41597)", "T1 sequence (P41597 1-360 isoform P41597-2)": "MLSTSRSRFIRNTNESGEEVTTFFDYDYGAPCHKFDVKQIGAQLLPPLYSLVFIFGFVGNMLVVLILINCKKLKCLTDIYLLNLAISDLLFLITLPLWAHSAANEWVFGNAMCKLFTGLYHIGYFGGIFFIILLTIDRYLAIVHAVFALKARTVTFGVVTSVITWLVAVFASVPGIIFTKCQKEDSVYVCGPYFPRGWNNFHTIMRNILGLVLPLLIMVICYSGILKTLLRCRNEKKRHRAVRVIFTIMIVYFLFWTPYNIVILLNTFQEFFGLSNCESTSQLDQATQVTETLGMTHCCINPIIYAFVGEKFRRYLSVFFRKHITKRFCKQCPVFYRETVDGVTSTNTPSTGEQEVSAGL", "experiment": "CCR2 binding assay ([125I]MCP-1, SPA, CHO cell membranes)", "design": "expressed in transfected cells; host or cells: CHO cells (membrane preparation)", "conditions": "membranes from CHO cells expressing hCCR2b, 50 pM [125I]MCP-1; read-out: Binding hCCR2 (Ki)", "method": "Membranes were prepared from CHO cells expressing mCCR2b or hCCR2b for use in ligand binding studies. Cells were suspended in 50mM Tris-HCL, pH 7.4, 2 mM EDTA, 250 mM Sucrose and 1x Complete EDTA-free protease inhibitor cocktail (Roche) (Buffer A), and disrupted at 4°C by N2 decompression using a cell disruption bomb (Parr Instrument). Following centrifugation at 200 RCF for 10 min at 4°C, the supernatant was suspended in buffer A and centrifuged again at 19000 RPM (RCSC rotor SS34 code 05 Sorvall Instruments DUPONT) for 90 min at 4°C. The pellet was then suspended in 10 mM HEPES, pH 7.4, 1 mM EDTA, 250 mM Sucrose, and 1x Complete EDTA-free protease inhibitor cocktail (Buffer B) and homogenized using a potter. Membranes were flash frozen in liquid N2 and stored at -80°C. [125I] Monocyte Chemoattractant Protein -1 (MCP-1) (25µCi; Perkin Elmer) was added to test compounds in DMSO (1% final). Membranes and WGA SPA beads (GE Healthcare) were added to give a final volume of 100 µl in 96-well plates with assay concentrations of 50 pM or 100 pM [125I]Monocyte Chemoattractant Protein -1 (respectively for hCCR2b or mCCR2b), 50 mM HEPES, pH 7.4, 5 mM MgCl2, 1 mM CaCl2, 0.1% BSA, 1-5 µg/well of membranes and 100 µg/well of WGA SPA beads. Binding was performed for 90 min at RT with strong agitation of speed 5 (Heidolph Titramax 100 SCITEC) and bound radioactivity was measured on a PerkinElmer 1450 MicroBeta counter. Specific binding was calculated by subtracting remaining radioactivity in the presence of 1000-fold excess of unlabeled compound. Binding data were analyzed using the Genedata Screener® software.", "units": {"Ki": "nM"}}
{"smiles": "COc1ccc(C2(O)CCC(N3CCC4(CC3)OC(=O)C(C)=C4C(=O)N3CCc4ccc(C(F)(F)F)cc4C3)CC2)cn1", "note": "(stereo not drawn) [Compound 25, 8-[4-hydroxy-4-(6-methoxypyridin-3-yl)cyclohexyl]-3-methyl-4-{[7-(trifluoromethyl)-3,4-dihydroisoquinolin-2(1H)-yl]carbonyl}-1-oxa-8-azaspiro[4.5]dec-3-en-2-one]", "Ki": "< 50"}
{"smiles": "CC1=C(C(=O)N2CCN(c3cccc(C(F)(F)F)c3)CC2)C2(CCN(CC(=O)c3ccccc3)CC2)OC1=O", "note": "[Compound 108, 3-methyl-8-(2-oxo-2-phenylethyl)-4-({4-[3-(trifluoromethyl)phenyl]piperazin-1-yl}carbonyl)-1-oxa-8-azaspiro[4.5]dec-3-en-2-one]", "Ki": "100 to 500"}
{"smiles": "CC1=C(C(=O)N2CCN(c3cccc(C(F)(F)F)c3)CC2)C2(CCN(CCc3ccc(Cl)cc3)CC2)OC1=O", "note": "[Compound 13, 8-[2-(4-chlorophenyl)ethyl]-3-methyl-4-({4-[3-(trifluoromethyl)phenyl]piperazin-1-yl}carbonyl)-1-oxa-8-azaspiro[4.5]dec-3-en-2-one]", "Ki": "< 50"}
{"smiles": "CCCN1CCC2(CC1)OC(=O)C(C)=C2C(=O)N1CCc2ccc(C(F)(F)F)cc2C1", "note": "[Compound 28, 3-methyl-8-propyl-4-{[7-(trifluoromethyl)-3,4-dihydroisoquinolin-2(1H)-yl]carbonyl}-1-oxa-8-azaspiro[4.5]dec-3-en-2-one]", "Ki": "< 50"}
{"smiles": "COC1COCCC1N1CCC2(CC1)OC(=O)C(C)=C2C(=O)N1CCc2ccc(C(F)(F)F)cc2C1", "note": "(single isomer, unassigned; (-)) [Compound 40, (-)-1,5-anhydro-2,3-dideoxy-4-O-methyl-3-(3-methyl-2-oxo-4-{[7-(trifluoromethyl)-3,4-dihydroisoquinolin-2(1H)-yl]carbonyl}-1-oxa-8-azaspiro[4.5]dec-3-en-8-yl) -pentitol]", "Ki": "< 50"}
{"smiles": "CCN1CCC2(CC1)OC(=O)C(C)=C2C(=O)N1CCN(c2cccc(F)c2)CC1", "note": "[Compound 80, 8-ethyl-4-{[4-(3-fluorophenyl)piperazin-1-yl]carbonyl}-3-methyl-1-oxa-8-azaspiro[4.5]dec-3-en-2-one]", "Ki": "500 to 2000"}
{"smiles": "CC1=C(C(=O)N2CCN(c3cccc(C(F)(F)F)c3)CC2)C2(CCN(CCCc3ccccc3)CC2)OC1=O", "note": "[Example 5, 3-methyl-8-(3-phenylpropyl)-4-({4-[3-(trifluoromethyl)phenyl]piperazin-1-yl}carbonyl)-1-oxa-8-azaspiro[4.5]dec-3-en-2-one]", "Ki": "< 50"}
{"smiles": "CC1=C(C(=O)N2CCc3ccc(C(F)(F)F)cc3C2)C2(CCN(CCO)CC2)OC1=O", "note": "[Compound 20, 8-(2-hydroxyethyl)-3-methyl-4-{[7-(trifluoromethyl)-3,4-dihydroisoquinolin-2(1H)-yl]carbonyl}-1-oxa-8-azaspiro[4.5]dec-3-en-2-one]", "Ki": "< 50"}
{"smiles": "COc1ccccc1CCN1CCC2(CC1)OC(=O)C(C)=C2C(=O)N1CCc2ccc(C(F)(F)F)cc2C1", "note": "[Compound 65, 8-[2-(2-methoxyphenyl)ethyl]-3-methyl-4-{[7-(trifluoromethyl)-3,4-dihydroisoquinolin-2(1H)-yl]carbonyl}-1-oxa-8-azaspiro[4.5]dec-3-en-2-one]", "Ki": "< 50"}
{"smiles": "CC1=C(C(=O)N2CCc3ncc(C(F)(F)F)cc3C2)C2(CCN(CCF)CC2)OC1=O", "note": "[Compound 116, 8-(2-fluoroethyl)-3-methyl-4-{[3-(trifluoromethyl)-7,8-dihydro-1,6-naphthyridin-6(5H)-yl]carbonyl}-1-oxa-8-azaspiro[4.5]dec-3-en-2-one]", "Ki": "< 50"}
{"smiles": "CCN1CCC2(CC1)OC(=O)C(C)=C2C(=O)N1CCCN(c2cccc(C(F)(F)F)c2)CC1", "note": "[Compound 90, 8-ethyl-3-methyl-4-({4-[3-(trifluoromethyl)phenyl]-1,4-diazepan-1-yl}carbonyl)-1-oxa-8-azaspiro[4.5]dec-3-en-2-one]", "Ki": "50 to 100"}
{"smiles": "CC1=C(C(=O)N2CCc3ncc(C(F)(F)F)cc3C2)C2(CCN(C3CCOCC3)CC2)OC1=O", "note": "[Compound 119, 3-methyl-8-(tetrahydro-2H-pyran-4-yl)-4-{[3-(trifluoromethyl)-7,8-dihydro-1,6-naphthyridin-6(5H)-yl]carbonyl}-1-oxa-8-azaspiro[4.5]dec-3-en-2-one]", "Ki": "< 50"}
{"smiles": "CCN1CCC2(CC1)OC(=O)C(C)=C2C(=O)NCCCc1cccc(C(F)(F)F)c1", "note": "[Compound 92, 8-ethyl-3-methyl-2-oxo-N-{3-[3-(trifluoromethyl)phenyl]propyl}-1-oxa-8-azaspiro[4.5]dec-3-ene-4-carboxamide]", "Ki": "100 to 500"}
{"smiles": "CC1=C(C(=O)N2CCN(c3cccc(C(F)(F)F)c3)CC2)C2(CCN(CC(C)c3ccccc3)CC2)OC1=O", "note": "(stereo not drawn) [Compound 105, 3-methyl-8-(2-phenylpropyl)-4-({4-[3-(trifluoromethyl)phenyl]piperazin-1-yl}carbonyl)-1-oxa-8-azaspiro[4.5]dec-3-en-2-one]", "Ki": "< 50"}
{"smiles": "CC1=C(C(=O)N2CCN(c3cccc(C(F)(F)F)c3)CC2)C2(CCN(CCc3ccc(F)cc3)CC2)OC1=O", "note": "[Example 3, 8-[2-(4-fluorophenyl)ethyl]-3-methyl-4-({4-[3-(trifluoromethyl)phenyl]piperazin-1-yl}carbonyl)-1-oxa-8-azaspiro[4.5]dec-3-en-2-one]", "Ki": "< 50"}
{"smiles": "CC1=C(C(=O)N2CCN(c3cccc(C(F)(F)F)c3)CC2)C2(CCN(C3CCC(C(=O)O)CC3)CC2)OC1=O", "note": "(stereo not drawn) [Compound 24, 4-[3-methyl-2-oxo-4-({4-[3-(trifluoromethyl)phenyl]piperazin-1-yl}carbonyl)-1-oxa-8-azaspiro[4.5]dec-3-en-8-yl]cyclohexanecarboxylic acid]", "Ki": "50 to 100"}
{"smiles": "CC1=C(C(=O)N2CCN(c3cccc(C(F)(F)F)c3)CC2)C2(CCN(C3CCOCC3)CC2)OC1=O", "note": "[Compound 21, 3-methyl-8-(tetrahydro-2H-pyran-4-yl)-4-({4-[3-(trifluoromethyl)phenyl]piperazin-1-yl}carbonyl)-1-oxa-8-azaspiro[4.5]dec-3-en-2-one]", "Ki": "< 50"}
{"smiles": "CCN1CCC2(CC1)OC(=O)C(C)=C2C(=O)N1CCN(c2cccc(OC(F)(F)F)c2)CC1", "note": "[Compound 81, 8-ethyl-3-methyl-4-({4-[3-(trifluoromethoxy)phenyl]piperazin-1-yl}carbonyl)-1-oxa-8-azaspiro[4.5]dec-3-en-2-one]", "Ki": "< 50"}
{"smiles": "CCN1CCC2(CC1)OC(=O)C(C)=C2C(=O)N1CCN(c2cccc(C(F)(F)F)c2)CC1C", "note": "(stereo not drawn) [Compound 84, 8-ethyl-3-methyl-4-({2-methyl-4-[3-(trifluoromethyl)phenyl]piperazin-1-yl}carbonyl)-1-oxa-8-azaspiro[4.5]dec-3-en-2-one]", "Ki": "< 50"}
{"smiles": "CCN1CCC2(CC1)OC(=O)C(C)=C2C(=O)Nc1ccc(-n2ccc(C(F)(F)F)n2)cc1", "note": "[Compound 75, 8-ethyl-3-methyl-2-oxo-N-{4-[3-(trifluoromethyl)-1H-pyrazol-1-yl]phenyl}-1-oxa-8-azaspiro[4.5]dec-3-ene-4-carboxamide]", "Ki": "500 to 2000"}
{"smiles": "CCN1CCC2(CC1)OC(=O)C(C)=C2C(=O)N1CCN(CCc2ccc(F)cc2)CC1", "note": "[Compound 58, 8-ethyl-4-({4-[2-(4-fluorophenyl)ethyl]piperazin-1-yl}carbonyl)-3-methyl-1-oxa-8-azaspiro[4.5]dec-3-en-2-one]", "Ki": "100 to 500"}
{"smiles": "CC1=C(C(=O)N2CCc3ccc(C(F)(F)F)cc3C2)C2(CCN(CC3CCOC3)CC2)OC1=O", "note": "(stereo not drawn) [Compound 33, 3-methyl-8-(tetrahydrofuran-3-ylmethyl)-4-{[7-(trifluoromethyl)-3,4-dihydroisoquinolin-2(1H)-yl]carbonyl}-1-oxa-8-azaspiro[4.5]dec-3-en-2-one]", "Ki": "< 50"}
{"smiles": "CC1=C(C(=O)N2CCN(c3cccc(C(F)(F)F)c3)CC2)C2(CCN(CCc3ccccc3)CC2)OC1=O", "note": "[Compound 102, 3-methyl-8-(2-phenylethyl)-4-({4-[3-(trifluoromethyl)phenyl]piperazin-1-yl}carbonyl)-1-oxa-8-azaspiro[4.5]dec-3-en-2-one]", "Ki": "< 50"}
{"smiles": "CCN1CCC2(CC1)OC(=O)C(C)=C2C(=O)N1CCC(c2cccc(C(F)(F)F)c2)C1", "note": "(stereo not drawn) [Compound 55, 8-ethyl-3-methyl-4-({3-[3-(trifluoromethyl)phenyl]pyrrolidin-1-yl}carbonyl)-1-oxa-8-azaspiro[4.5]dec-3-en-2-one]", "Ki": "100 to 500"}
